Experimental data as given in ChEMBL document CHEMBL4229386, “Benzopyrroloxazines containing a bridgehead nitrogen atom as promising scaffolds for the achievement of biologically active agents” (Eur J Med Chem, 2018).
Values after ≈ are worked out from the molar mass of the structure shown.

Assays:
[1] = target: T1, RNA-directed RNA polymerase (Hepacivirus hominis, UniProt O39930); assay: Inhibition of HCV genotype 1b NS5B RNA dependent RNA polymerase expressed in Escherichia coli BL21 (DE3) using biotinylated oligo-dT12 primer as substrate after 60 mins; set-up: species or system Hepatitis C virus subtype 1b
Hepatitis C virus = assay: Antiviral activity against HCV replicon after 3 days by RT-PCR analysis; assay type: functional, organism-based, Hepacivirus hominis; conditions: 72 h
[2] = target: Sodium channel protein type 9 subunit alpha (Rattus norvegicus, UniProt O08562); assay: Inhibition of Nav1.7 in rat dorsal root ganglions at -60 mV holding potential by patch clamp assay
Rattus norvegicus = species: Rattus norvegicus; assay: Analgesic activity in rat assessed as inhibition of acetic acid-induced writhing; assay type: functional
[3] = target: Methionine aminopeptidase 2 (Homo sapiens, UniProt P50579); assay: Inhibition of human recombinant MetAP2 expressed in Sf9 insect cells using MAS as substrate after 30 mins by fluorometeric analysis
Acetylcholinesterase = target: T2, Acetylcholinesterase (Bos taurus, UniProt P23795); assay: Inhibition of bovine AChE using ACH iodide as substrate preincubated for 60 mins followed by substrate addition and measured after 1 hrs by spectrophotometeric analysis
T2 sequence (P23795 whole entry): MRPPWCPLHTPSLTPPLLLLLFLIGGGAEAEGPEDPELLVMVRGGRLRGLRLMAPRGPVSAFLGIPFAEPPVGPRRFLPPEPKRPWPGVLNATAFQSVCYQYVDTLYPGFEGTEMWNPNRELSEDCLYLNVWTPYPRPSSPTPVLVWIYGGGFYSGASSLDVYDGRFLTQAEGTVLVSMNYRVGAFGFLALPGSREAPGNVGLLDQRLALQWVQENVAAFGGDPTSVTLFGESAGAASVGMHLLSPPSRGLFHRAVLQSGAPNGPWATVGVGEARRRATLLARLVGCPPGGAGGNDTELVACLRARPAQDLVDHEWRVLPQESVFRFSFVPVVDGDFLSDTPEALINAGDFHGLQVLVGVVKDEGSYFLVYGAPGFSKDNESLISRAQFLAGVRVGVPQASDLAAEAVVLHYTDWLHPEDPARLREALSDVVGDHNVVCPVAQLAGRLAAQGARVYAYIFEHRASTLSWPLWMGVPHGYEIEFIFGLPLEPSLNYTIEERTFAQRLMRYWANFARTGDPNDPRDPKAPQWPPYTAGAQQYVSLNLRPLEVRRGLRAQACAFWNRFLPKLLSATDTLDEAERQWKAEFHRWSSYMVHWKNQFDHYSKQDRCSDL

Escherichia coli = assay: Antimicrobial activity against Escherichia coli; assay type: functional
Staphylococcus aureus = assay: Antimicrobial activity against Staphylococcus aureus; assay type: functional
[4] = target: T1, RNA-directed RNA polymerase; assay: Inhibition of HCV NS5B RNA dependent RNA polymerase
[5] = Inhibition of [33P]-ATP binding to Escherichia coli NR2 after 15 mins by liquid scintillation analysis
Staphylococcus = assay: Antimicrobial activity against Staphylococcus; assay type: functional

T1 sequence (O39930 whole entry): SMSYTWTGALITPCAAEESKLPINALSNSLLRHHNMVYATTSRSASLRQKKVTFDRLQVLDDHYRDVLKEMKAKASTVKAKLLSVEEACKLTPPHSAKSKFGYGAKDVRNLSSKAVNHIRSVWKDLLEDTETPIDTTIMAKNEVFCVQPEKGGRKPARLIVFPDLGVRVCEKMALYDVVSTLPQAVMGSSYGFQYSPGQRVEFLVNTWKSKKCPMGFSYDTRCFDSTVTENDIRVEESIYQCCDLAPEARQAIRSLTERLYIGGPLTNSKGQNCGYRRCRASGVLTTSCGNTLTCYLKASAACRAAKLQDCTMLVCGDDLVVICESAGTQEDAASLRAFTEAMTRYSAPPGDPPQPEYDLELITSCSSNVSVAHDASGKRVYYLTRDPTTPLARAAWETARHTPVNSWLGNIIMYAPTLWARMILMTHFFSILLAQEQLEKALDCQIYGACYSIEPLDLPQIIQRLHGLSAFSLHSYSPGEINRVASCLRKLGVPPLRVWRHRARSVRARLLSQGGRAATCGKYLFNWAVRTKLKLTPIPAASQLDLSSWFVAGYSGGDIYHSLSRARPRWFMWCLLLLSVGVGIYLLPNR
Chain of Sodium channel protein type 9 subunit alpha (O08562 whole entry): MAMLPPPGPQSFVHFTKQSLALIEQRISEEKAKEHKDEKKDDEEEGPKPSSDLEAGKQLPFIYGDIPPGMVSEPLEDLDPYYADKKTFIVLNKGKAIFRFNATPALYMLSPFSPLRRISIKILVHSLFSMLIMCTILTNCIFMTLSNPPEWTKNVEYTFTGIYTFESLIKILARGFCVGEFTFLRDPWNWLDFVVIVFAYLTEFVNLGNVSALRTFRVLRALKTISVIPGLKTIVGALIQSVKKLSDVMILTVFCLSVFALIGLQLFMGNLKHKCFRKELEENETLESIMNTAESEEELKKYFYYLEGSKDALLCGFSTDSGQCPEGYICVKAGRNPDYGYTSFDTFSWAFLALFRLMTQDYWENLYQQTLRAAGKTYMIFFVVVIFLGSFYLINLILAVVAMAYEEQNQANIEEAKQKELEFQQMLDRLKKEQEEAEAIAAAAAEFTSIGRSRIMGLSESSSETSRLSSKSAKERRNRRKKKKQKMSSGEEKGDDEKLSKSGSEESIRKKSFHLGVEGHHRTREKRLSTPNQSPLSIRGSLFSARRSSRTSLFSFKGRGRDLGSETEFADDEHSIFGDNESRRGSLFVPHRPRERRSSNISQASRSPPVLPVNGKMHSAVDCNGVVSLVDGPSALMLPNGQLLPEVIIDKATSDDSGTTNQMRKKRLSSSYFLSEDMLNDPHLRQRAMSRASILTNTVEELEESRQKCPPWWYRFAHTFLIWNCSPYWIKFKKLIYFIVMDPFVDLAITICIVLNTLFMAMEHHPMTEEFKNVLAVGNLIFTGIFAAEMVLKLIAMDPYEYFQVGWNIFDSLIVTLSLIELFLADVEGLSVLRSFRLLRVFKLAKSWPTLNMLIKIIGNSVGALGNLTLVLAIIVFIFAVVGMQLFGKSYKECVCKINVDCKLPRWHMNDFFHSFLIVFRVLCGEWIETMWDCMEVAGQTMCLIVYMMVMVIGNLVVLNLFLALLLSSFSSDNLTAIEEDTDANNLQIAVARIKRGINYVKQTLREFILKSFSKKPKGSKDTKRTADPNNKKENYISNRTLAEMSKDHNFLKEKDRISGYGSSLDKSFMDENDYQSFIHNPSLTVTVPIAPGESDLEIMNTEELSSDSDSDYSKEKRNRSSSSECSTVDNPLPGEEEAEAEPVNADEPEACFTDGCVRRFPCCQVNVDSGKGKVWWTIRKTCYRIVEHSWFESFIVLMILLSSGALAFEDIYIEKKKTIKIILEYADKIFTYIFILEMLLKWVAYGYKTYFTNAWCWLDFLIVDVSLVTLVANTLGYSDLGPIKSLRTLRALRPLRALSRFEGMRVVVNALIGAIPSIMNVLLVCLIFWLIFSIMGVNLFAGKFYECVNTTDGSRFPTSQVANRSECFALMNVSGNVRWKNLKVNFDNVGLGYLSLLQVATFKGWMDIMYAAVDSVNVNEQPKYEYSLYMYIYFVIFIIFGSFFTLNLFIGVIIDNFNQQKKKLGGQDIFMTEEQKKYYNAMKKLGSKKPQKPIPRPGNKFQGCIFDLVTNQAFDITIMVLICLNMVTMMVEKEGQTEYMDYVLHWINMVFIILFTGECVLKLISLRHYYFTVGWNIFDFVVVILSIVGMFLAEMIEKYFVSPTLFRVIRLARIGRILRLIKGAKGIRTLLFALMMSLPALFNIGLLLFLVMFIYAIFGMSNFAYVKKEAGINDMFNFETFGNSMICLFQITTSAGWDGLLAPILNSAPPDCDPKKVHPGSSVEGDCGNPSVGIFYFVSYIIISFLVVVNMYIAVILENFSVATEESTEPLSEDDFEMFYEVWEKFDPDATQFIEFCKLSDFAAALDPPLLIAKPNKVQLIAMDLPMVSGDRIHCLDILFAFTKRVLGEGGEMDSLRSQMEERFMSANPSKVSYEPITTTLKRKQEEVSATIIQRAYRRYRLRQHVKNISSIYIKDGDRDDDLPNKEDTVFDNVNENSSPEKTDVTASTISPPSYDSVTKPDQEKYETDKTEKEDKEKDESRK
Chain of Methionine aminopeptidase 2 (P50579 whole entry): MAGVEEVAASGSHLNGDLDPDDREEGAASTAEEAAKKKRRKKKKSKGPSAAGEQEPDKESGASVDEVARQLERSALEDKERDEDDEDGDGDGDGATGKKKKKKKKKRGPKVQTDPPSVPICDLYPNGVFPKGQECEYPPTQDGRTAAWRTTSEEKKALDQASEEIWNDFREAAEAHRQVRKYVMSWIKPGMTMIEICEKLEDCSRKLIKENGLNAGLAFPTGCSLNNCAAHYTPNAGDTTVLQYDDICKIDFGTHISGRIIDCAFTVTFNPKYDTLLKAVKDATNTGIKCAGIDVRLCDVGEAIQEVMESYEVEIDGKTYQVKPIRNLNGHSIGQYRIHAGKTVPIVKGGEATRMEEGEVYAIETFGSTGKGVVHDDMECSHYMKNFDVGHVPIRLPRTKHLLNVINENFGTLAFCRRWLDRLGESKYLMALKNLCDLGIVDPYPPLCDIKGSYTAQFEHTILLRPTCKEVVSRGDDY

CN(C)S(=O)(=O)NC(=O)c1ccc2c(C3CCCCC3)c(-c3ccccc3)n3c2c1OCC3
IC50 [1]: < 10 µM

COC(=O)NC(C(=O)N1CCCC1c1ncc(-c2ccc3c(c2)-n2ccc4cc(-c5cnc(C6CCCN6C(=O)C(NC(=O)OC)C(C)C)[nH]5)cc(c42)O3)[nH]1)C(C)C (stereo unspecified)
EC50 (Hepatitis C virus): 0.01 nM

COc1c(O)cccc1C(=O)N1CCC2(CC1)Oc1ccccc1-n1c(C#N)ccc12
IC50 [2]: < 2000 nM

Cc1c(C(=O)c2ccc3ncccc3c2)c2cccc3c2n1C(CN1CCOCC1)CO3 (stereo unspecified)
ED50 (Rattus norvegicus): 3.5 mg/kg

CCN(CC)C/C=C\c1cc(F)ccc1S(=O)(=O)Nc1ccc2c(c1C(=O)O)OCc1cccn1-2
IC50 [3]: < 50 nM

CC(=O)OC12C=CC(=O)N1c1ccccc1C(=O)O2 (stereo unspecified)
Ki (Acetylcholinesterase): 4.7 µM

CCCc1c(O)cc2oc3cccn3c(=O)c2c1O
MIC (Escherichia coli): 2 µg/mL (≈ 7.71 µM) | MIC (Staphylococcus aureus): 2 µg/mL (≈ 7.71 µM)

COC(=O)NC(C(=O)N1CCCC1c1ncc(-c2ccc3c(c2)OCn2c-3c(F)c3cc(-c4cnc(C5CCCN5C(=O)C(NC(=O)OC)C(C)C)[nH]4)ccc32)[nH]1)C(C)C (stereo unspecified)
IC50 [4]: 1 pM

CCCc1c(O)cc2oc3cc(Cl)cn3c(=O)c2c1O
IC50 [5]: 20 µM | MIC (Staphylococcus): 0.2 to 0.78 µg/mL (≈ 0.681 to 2.66 µM)
